Laboratory results: patent US20180298405A1, “METHODS AND COMPOSITIONS TO INCREASE HUMAN SOMATIC CELL NUCLEAR TRANSFER (SCNT) EFFICIENCY BY REMOVING HISTONE H3-LYSINE TRIMETHYLATION, AND DERIVATION OF HUMAN NT-ESC” (CHILDREN'S MEDICAL CENTER CORPORATION, priority 2015, published 2018)
“And” between values parts separate entries of the source, which are not always exact repeats. Identical values can stand only once.

Test system: human SCNT embryos
Test: Preimplantation development of KDM4A-assisted human SCNT embryos
Assay type: cell-based
Conditions: for embryos reaching the blastocyst stage: day 6; for embryos developed to the expanded blastocyst stage: day 7
Method: All MII stage human oocytes with distinctive 1st polar bodies were enucleated under an inverted microscope equipped with a Poloscope (Oosight®, Cambridge Research & Instrumentation). The enucleation and nuclear donor cell fusion were carried out in the presence of caffeine (1.25 mM). For enucleation, oocytes were pre-incubated in Global HTF medium with Hepes (Life Global) containing 0.5 μg/ml cytochalasin B and caffeine (1.25 mM) for 5 minutes. Then, the spindle complex was removed using a PIEZO actuator (Primetech, Japan). Dermal fibroblast cells resuspended in a drop containing HVJ-E extract (Cosmo Bio, USA) were inserted into the perivitelline space of the enucleated oocytes. The reconstructed oocytes were kept in the manipulation medium containing caffeine (1.25 mM) until the cell fusion was confirmed, and then the reconstructed oocytes were transferred into Global medium 10% SPS, and incubated for 1-1.5 hours before activation. Activation was carried out by applying electropulses (2×50 μs DC pulses, 2.7 kV/cm) in 0.25M d-sorbitol buffer and 6-DMAP (2 mM, 4 hrs) as previously described (Tachibana et al., 2013). The activated embryos were transferred to Global 10% SPS medium supplemented with Trichostatin A (TSA, 10 nM, Sigma) for 12 hrs, then the embryos were transferred to Global 10% FBS without TSA and cultured for up to 7 days in an incubator with atmosphere of 6% CO2/5% O2/89% N2 at 37° C. The culture medium was changed on day 3.
For mRNA injection, the activated SCNT embryos were washed and cultured in Global 10% SPS for 1 hr before the KDM4A mRNA injection. Approximately 10 pl of KDM4A mRNA were injected into the SCNT embryos at 5 hours after activation in Hepes-HTF 10% SPS medium using a PIEZO actuator as described previously (Matoba et al., 2014). More details on donor cell preparation, mRNA preparation, RNA-seq and other procedures can be found in the Supplemental Experimental Procedures.
In vitro transcription was performed as described previously (Matoba et al., 2014). Briefly, full length human KDM4A/JHDM3A cDNA was cloned into a pcDNA3.1 plasmid containing poly(A)83 at the 3′ end of cloning site. The catalytic defective mutant form of KDM4A (H188A) was generated using PrimeSTAR mutagenesis kit (TAKARA # R045A). mRNA was synthesized using the mMESSAGE mMACHINE T7 Ultra Kit (Life technologies # AM1345). The synthesized mRNA was dissolved in nuclease-free water. The concentration of mRNA was measured by NanoDrop ND-1000 spectrophotometer (NanoDrop Technologies). Aliquots of mRNA were stored at −80° C. until use.
Ovarian stimulation was carried out as described previously (Chung et al., 2014). Briefly, a combination of human recombinant follicle-stimulating hormone (rFSH, 225-3001U, Merck) and human menopausal gonadotropin (Menopur 751U, Ferring) were used to stimulate ovary for 9-11 days with GnRH antagonist (Ganirelix acetate, Merck) suppression. Lupron 4 mg was used to mimic the LH surge when 1 or 2 follicles reached 18 mm in diameter. All medications were administered through subcutaneous injections. Transvaginal oocyte retrieval was performed approximately 36 hours after the Lupron injection. The collected COCs were denuded with 5080 IU/ml hyaluronidase (Sigma-Aldrich) within 1-2 hours after retrieval. Then, they were kept in Global medium supplemented with 10% serum protein supplement (SPS; Cooper Surgical) (IVF Online) until use.
The procedures for somatic nuclear donor cell preparation are essentially the same as previously described (Chung et al., 2014). Briefly, the skin explant was mechanically minced and treated with collagenase (type I, 200 unit/ml, Worthington-biochem) in DMEM supplemented with 10 μg/ml penicillin-streptomycin solution to dissociate the skin tissue. […]

[1] = pooled four oocyte donors, per 2-cell
[2] = pooled four oocyte donors, per 2-cell, listed as KDM4A

How did the “oocyte donors whose oocytes supported blastocyst formation” value (four oocyte donors tested, TSA present) turn out when “KDM4A mRNA: in vitro transcribed mRNA of full length human KDM4A/JHDM3A cDNA, an H3K9me3 demethylase (SEQ ID NO: 1)” was run?
Its value is “all four donors tested supported blastocyst formation”.

What about the “embryos reaching the blastocyst stage” value [1] of the same substance?
Its value is 26.8% and 27%.

What about the “embryos reaching the blastocyst stage” value [2] of the same substance?
Its value is 26.8%.

And the “embryos developed to the expanded blastocyst stage” value [1]?
The value was 14.3%.

What about the “embryos developed to the expanded blastocyst stage” value [2] of the same substance?
Its value is 14% and 14.3%.

What about the “developmental rate to 8-cell stage” value [1] of the same substance?
Its value is 71.4%.

And the “developmental rate to morula stage” value [1]?
Its value is 32%.

And the “developmental rate to morula stage” value [2]?
Its value is 32.1%.

What about the “cleavage efficiency to form 2-cell embryos” value (pooled oocytes of four donors, AMD patient fibroblast donors, mRNA injected 5 h after activation, per 1-cell) of the same substance?
The value was 88.9%.

And the “increase in hSCNT embryos developing into blastocysts” value (versus control hSCNT embryos (4.2%))?
The value was “greater than 20%”.

And the “increase in embryos reaching expanded blastocyst stage” value (versus non-treated human SCNT embryos (0%))?
Its value is 14%.
